Source: PubChem BioAssay AID212 (DTP/NCI, 2004)
Values joined by “and” are separate entries in the source; they are usually repeats but may differ in a detail not shown here. Equal values may be shown once. Records with an inconclusive call do not appear.

System: BDF1 mice, colon carcinoma 38 sc, T/C %
Assay: NCI In Vivo Anticancer Drug Screen. Data for tumor model Colon Carcinoma 38 (subcutaneous) in B6D2F1 (BDF1) mice
Procedure, shortened: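 Transplantable tumor in mice; compound-treated vs vehicle-dosed controls. Measured survival or tumor size; value = T ÷ C.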

[1] = endpoint: median tumor weight (est.), dose: 12.5 mg/kg/injection, schedule: Q07DX002 (ip), vehicle: saline, higher = larger tumour
[2] = endpoint: median tumor weight (est.), dose: 400.0 mg/kg/injection, schedule: Q07DX002 (ip), vehicle: saline, higher = larger tumour

SMILES: Nc1ccc2c(c1)CN1C(=O)c3ccccc3C1=N2
- T/C (endpoint: median survival time, dose: 60.0 mg/kg/injection, schedule: Q07DX002 (oral), vehicle: saline with Tween-80, higher = longer survival): 96 % of control
- T/C (endpoint: median survival time, dose: 100.0 mg/kg/injection, schedule: Q01DX008 (oral), vehicle: saline with Tween-80, higher = longer survival): 103 % of control
- T/C (endpoint: median survival time, dose: 200.0 mg/kg/injection, schedule: Q01DX008 (oral), vehicle: saline with Tween-80, higher = longer survival): 96 % of control
- T/C (endpoint: median survival time, dose: 800.0 mg/kg/injection, schedule: Q07DX002 (oral), vehicle: saline with Tween-80, higher = longer survival): 90 % of control
- T/C (endpoint: median survival time, dose: 1000.0 mg/kg/injection, schedule: Q07DX002 (oral), vehicle: saline with Tween-80, higher = longer survival): 97 % of control
- T/C (endpoint: median tumor weight (est.), dose: 50.0 mg/kg/injection, schedule: Q07DX002 (ip), vehicle: DMSO, higher = larger tumour): 50 % of control
- T/C (endpoint: median tumor weight (est.), dose: 100.0 mg/kg/injection, schedule: Q07DX002 (ip), vehicle: other, higher = larger tumour): 13 % of control
- T/C (endpoint: median tumor weight (est.), dose: 103.7 mg/kg/injection, schedule: Q01DX005 (oral), vehicle: saline with Tween-80, higher = larger tumour): 52 % of control
- T/C (endpoint: median tumor weight (est.), dose: 129.6 mg/kg/injection, schedule: Q06HX004 (oral), vehicle: saline with Tween-80, higher = larger tumour): 26 % of control
- T/C (endpoint: median tumor weight (est.), dose: 172.8 mg/kg/injection, schedule: Q01DX005 (oral), vehicle: saline with Tween-80, higher = larger tumour): 52 % of control
- T/C (endpoint: median tumor weight (est.), dose: 200.0 mg/kg/injection, schedule: Q07DX002 (oral), vehicle: saline with Tween-80, higher = larger tumour): 27 % of control
- T/C (endpoint: median tumor weight (est.), dose: 216.0 mg/kg/injection, schedule: Q06HX004 (oral), vehicle: saline with Tween-80, higher = larger tumour): 16 % of control
- T/C (endpoint: median tumor weight (est.), dose: 288.0 mg/kg/injection, schedule: Q01DX005 (oral), vehicle: saline with Tween-80, higher = larger tumour): 7 % of control
- T/C (endpoint: median tumor weight change, dose: 70.4 mg/kg/injection, schedule: Q01DX009 (oral), vehicle: saline with Tween-80, higher = larger tumour): 13 % of control
- T/C (endpoint: median tumor weight change, dose: 105.6 mg/kg/injection, schedule: Q01DX005 (oral), vehicle: saline with Tween-80, higher = larger tumour): 68 % of control
- T/C (endpoint: median tumor weight change, dose: 105.6 mg/kg/injection, schedule: Q01DX009 (oral), vehicle: saline with Tween-80, higher = larger tumour): 42 % of control
- T/C (endpoint: median tumor weight change, dose: 158.3 mg/kg/injection, schedule: Q01DX005 (oral), vehicle: saline with Tween-80, higher = larger tumour): -5 % of control
- T/C (endpoint: median tumor weight change, dose: 158.3 mg/kg/injection, schedule: Q01DX009 (oral), vehicle: saline with Tween-80, higher = larger tumour): -40 % of control
- T/C (endpoint: median tumor weight change, dose: 158.3 mg/kg/injection, schedule: Q06HX002 (oral), vehicle: saline with Tween-80, higher = larger tumour): 71 % of control
- T/C (endpoint: median tumor weight change, dose: 158.3 mg/kg/injection, schedule: Q06HX004 (oral), vehicle: saline with Tween-80, higher = larger tumour): 60 % of control
- T/C (endpoint: median tumor weight change, dose: 158.3 mg/kg/injection, schedule: Q07DX003 (oral), vehicle: saline with Tween-80, higher = larger tumour): 24 % of control
- T/C (endpoint: median tumor weight change, dose: 237.0 mg/kg/injection, schedule: Q08DX002 (oral), vehicle: saline with Tween-80, higher = larger tumour): 33 % of control
- T/C (endpoint: median tumor weight change, dose: 237.4 mg/kg/injection, schedule: Q01DX005 (oral), vehicle: saline with Tween-80, higher = larger tumour): -60 % of control
- T/C (endpoint: median tumor weight change, dose: 237.4 mg/kg/injection, schedule: Q06HX002 (oral), vehicle: saline with Tween-80, higher = larger tumour): 37 % of control
- T/C (endpoint: median tumor weight change, dose: 237.4 mg/kg/injection, schedule: Q06HX004 (oral), vehicle: saline with Tween-80, higher = larger tumour): 36 % of control
- T/C (endpoint: median tumor weight change, dose: 237.4 mg/kg/injection, schedule: Q07DX002 (oral), vehicle: saline with Tween-80, higher = larger tumour): 80 % of control
- T/C (endpoint: median tumor weight change, dose: 237.4 mg/kg/injection, schedule: Q07DX003 (oral), vehicle: saline with Tween-80, higher = larger tumour): 69 % of control
- T/C (endpoint: median tumor weight change, dose: 355.9 mg/kg/injection, schedule: Q01DX001 (oral), vehicle: saline with Tween-80, higher = larger tumour): 68 % of control
- T/C (endpoint: median tumor weight change, dose: 355.9 mg/kg/injection, schedule: Q01DX005 (oral), vehicle: saline with Tween-80, higher = larger tumour): -88 % of control
- T/C (endpoint: median tumor weight change, dose: 355.9 mg/kg/injection, schedule: Q06HX002 (oral), vehicle: saline with Tween-80, higher = larger tumour): 48 % of control and 66 % of control
- T/C (endpoint: median tumor weight change, dose: 355.9 mg/kg/injection, schedule: Q06HX004 (oral), vehicle: saline with Tween-80, higher = larger tumour): -13 % of control
- T/C (endpoint: median tumor weight change, dose: 355.9 mg/kg/injection, schedule: Q07DX002 (oral), vehicle: saline with Tween-80, higher = larger tumour): 23 % of control
- T/C (endpoint: median tumor weight change, dose: 355.9 mg/kg/injection, schedule: Q07DX003 (oral), vehicle: saline with Tween-80, higher = larger tumour): 55 % of control
- T/C (endpoint: median tumor weight change, dose: 355.9 mg/kg/injection, schedule: Q08DX002 (oral), vehicle: saline with Tween-80, higher = larger tumour): 33 % of control
- T/C (endpoint: median tumor weight change, dose: 533.6 mg/kg/injection, schedule: Q01DX001 (oral), vehicle: saline with Tween-80, higher = larger tumour): 66 % of control
- T/C (endpoint: median tumor weight change, dose: 533.6 mg/kg/injection, schedule: Q06HX002 (oral), vehicle: saline with Tween-80, higher = larger tumour): -46 % of control and -38 % of control
- T/C (endpoint: median tumor weight change, dose: 533.6 mg/kg/injection, schedule: Q06HX004 (oral), vehicle: saline with Tween-80, higher = larger tumour): -50 % of control
- T/C (endpoint: median tumor weight change, dose: 533.6 mg/kg/injection, schedule: Q07DX002 (oral), vehicle: saline with Tween-80, higher = larger tumour): 52 % of control
- T/C (endpoint: median tumor weight change, dose: 533.6 mg/kg/injection, schedule: Q07DX003 (oral), vehicle: saline with Tween-80, higher = larger tumour): 34 % of control
- T/C (endpoint: median tumor weight change, dose: 533.6 mg/kg/injection, schedule: Q08DX002 (oral), vehicle: saline with Tween-80, higher = larger tumour): 34 % of control
- T/C (endpoint: median tumor weight change, dose: 800.0 mg/kg/injection, schedule: Q01DX001 (oral), vehicle: saline with Tween-80, higher = larger tumour): 47 % of control
- T/C (endpoint: median tumor weight change, dose: 800.0 mg/kg/injection, schedule: Q06HX002 (oral), vehicle: saline with Tween-80, higher = larger tumour): -87 % of control and -85 % of control
- T/C (endpoint: median tumor weight change, dose: 800.0 mg/kg/injection, schedule: Q06HX004 (oral), vehicle: saline with Tween-80, higher = larger tumour): -99 % of control
- T/C (endpoint: median tumor weight change, dose: 800.0 mg/kg/injection, schedule: Q07DX002 (oral), vehicle: saline with Tween-80, higher = larger tumour): 1 % of control
- T/C (endpoint: median tumor weight change, dose: 800.0 mg/kg/injection, schedule: Q07DX003 (oral), vehicle: saline with Tween-80, higher = larger tumour): -10 % of control
- T/C (endpoint: median tumor weight change, dose: 800.0 mg/kg/injection, schedule: Q08DX002 (oral), vehicle: saline with Tween-80, higher = larger tumour): -14 % of control
- T/C (endpoint: median tumor weight change, dose: 1199.4 mg/kg/injection, schedule: Q01DX001 (oral), vehicle: saline with Tween-80, higher = larger tumour): 39 % of control
- T/C (endpoint: median tumor weight change, dose: 1199.4 mg/kg/injection, schedule: Q08DX002 (oral), vehicle: saline with Tween-80, higher = larger tumour): -36 % of control

SMILES: CCCCCCCCCCCCCCCC(=O)Nc1ccn(C2OC(CO)C(O)C2O)c(=O)n1 (configuration not stated)
- T/C [1]: 41 % of control
- T/C (endpoint: median tumor weight (est.), dose: 25.0 mg/kg/injection, schedule: Q07DX002 (ip), vehicle: saline, higher = larger tumour): 88 % of control
- T/C (endpoint: median tumor weight (est.), dose: 50.0 mg/kg/injection, schedule: Q07DX002 (ip), vehicle: saline, higher = larger tumour): 50 % of control
- T/C (endpoint: median tumor weight (est.), dose: 100.0 mg/kg/injection, schedule: Q07DX002 (ip), vehicle: saline, higher = larger tumour): 5 % of control
- T/C (endpoint: median tumor weight (est.), dose: 200.0 mg/kg/injection, schedule: Q07DX002 (ip), vehicle: saline, higher = larger tumour): 16 % of control
- T/C [2]: 1 % of control

SMILES: ClCC[N+]12CC[N+](CCCl)(CC1)C2
- T/C [1]: 115 % of control and 123 % of control
- T/C (endpoint: median tumor weight (est.), dose: 12.5 mg/kg/injection, schedule: Q07DX003 (ip), vehicle: saline, higher = larger tumour): 56 % of control
- T/C (endpoint: median tumor weight (est.), dose: 12.5 mg/kg/injection, schedule: Q07DX003 (ip), vehicle: water, higher = larger tumour): 84 % of control
- T/C (endpoint: median tumor weight (est.), dose: 25.0 mg/kg/injection, schedule: Q07DX003 (ip), vehicle: saline, higher = larger tumour): 65 % of control
- T/C (endpoint: median tumor weight (est.), dose: 25.0 mg/kg/injection, schedule: Q07DX003 (ip), vehicle: water, higher = larger tumour): 78 % of control
- T/C (endpoint: median tumor weight (est.), dose: 50.0 mg/kg/injection, schedule: Q07DX003 (ip), vehicle: saline, higher = larger tumour): 72 % of control
- T/C (endpoint: median tumor weight (est.), dose: 50.0 mg/kg/injection, schedule: Q07DX003 (ip), vehicle: water, higher = larger tumour): 44 % of control
- T/C (endpoint: median tumor weight (est.), dose: 100.0 mg/kg/injection, schedule: Q07DX003 (ip), vehicle: saline, higher = larger tumour): 123 % of control
- T/C (endpoint: median tumor weight (est.), dose: 100.0 mg/kg/injection, schedule: Q07DX003 (ip), vehicle: water, higher = larger tumour): 45 % of control
- T/C (endpoint: median tumor weight (est.), dose: 200.0 mg/kg/injection, schedule: Q07DX003 (ip), vehicle: saline, higher = larger tumour): 70 % of control
- T/C [2]: 47 % of control and 52 % of control
- T/C (endpoint: median tumor weight (est.), dose: 400.0 mg/kg/injection, schedule: Q07DX003 (ip), vehicle: saline, higher = larger tumour): 115 % of control

SMILES: C/C=C/C1=CC(=O)C(O)C1O (configuration not stated)
- T/C (endpoint: median tumor weight (est.), dose: 90.0 mg/kg/injection, schedule: Q07DX002 (ip), vehicle: water, higher = larger tumour): 75 % of control
- T/C (endpoint: median tumor weight (est.), dose: 180.0 mg/kg/injection, schedule: Q07DX002 (ip), vehicle: water, higher = larger tumour): 170 % of control

SMILES: Nc1c(C(=O)O)[nH]c(=O)[nH]c1=O
- T/C (endpoint: median tumor weight (est.), dose: 12.5 mg/kg/injection, schedule: Q07DX002 (ip), vehicle: saline with Tween-80, higher = larger tumour): 104 % of control
- T/C (endpoint: median tumor weight (est.), dose: 25.0 mg/kg/injection, schedule: Q07DX002 (ip), vehicle: saline with Tween-80, higher = larger tumour): 100 % of control
- T/C (endpoint: median tumor weight (est.), dose: 50.0 mg/kg/injection, schedule: Q07DX002 (ip), vehicle: saline with Tween-80, higher = larger tumour): 80 % of control
- T/C (endpoint: median tumor weight (est.), dose: 200.0 mg/kg/injection, schedule: Q07DX002 (ip), vehicle: saline with Tween-80, higher = larger tumour): 123 % of control
